Reference: patent US20230076803A1, “COMPOUND AND DRUG CONJUGATE, AND PREPARATION METHOD AND USE THEREOF” (priority 2019, published 2023)
Read-outs that look alike come from different tables or passages of the source.

What was measured:
[1] = 90% cynomolgus monkey plasma, 37° C., period of up to 72 hours
Method: Therein, 0 hour is the time when 10 μL of the mixed solution was taken immediately after the conjugate solution was mixed well with 90% cynomolgus monkey plasma. After sampling at each time point, each mixed solution was diluted 5-fold with 1×PBS (pH7.4), and 10 μL of each diluted mixed solution was taken for electrophoresis.
20 wt % of non-denatured polyacrylamide gel was prepared. The samples for electrophoresis in each group of the above diluted samples were mixed with 4 μL of loading buffer (20 mM EDTA, 36 wt % glycerol, and 0.06 wt % aqueous solution of bromophenol blue) and loaded into each gel well for electrophoresis under 80 mA constant current for 60 minutes. After electrophoresis, the gel was stained with 1×Sybr Gold dye (Invitrogen, Cat. 11494) for 15 minutes and imaged.

HBV mRNA [2] = experiment: Inhibition of HBV mRNA on day 70 (Exp. Ex. 2-7, FIG. 9); assay type: in vivo, AAV-HBV low concentration model mice; settings: 1 mg/kg or 3 mg/kg, day 70 after administration
Method: (§1) The AAV-HBV low concentration model mice were used.
In a further experiment, the inhibitory effect on HBV mRNA on day 70 was tested according to the detection method of Example 6 above, and the results are shown in FIG. 9.

HBsAg [3] = settings: M-Tg HBV mice, 3 mg/kg subcutaneous single dose, period of up to 70 days
Method: HBV transgenic mice: named as M-Tg HBV, purchased from the Animal Department of Shanghai Public Health Center. […] Hereinafter, the transgenic mice were sometimes abbreviated as M-Tg model mice;
M-Tg HBV mice (purchased from the Animal Department of Shanghai Public Health Center) were used. […] The AAV virus used is rAAV8-1.3HBV, type D (ayw) virus, purchased from Beijing FivePlus Molecular Medicine Institute Co. Ltd., 1×10^12 viral genome (v.g.)/mL, Lot No. 2016123011. The AAV virus was diluted to 5×10^11 v.g./mL with sterilized PBS prior to the experiment. Each mouse was injected with 200 μL (that is, each mouse was injected with 1×10^11 v.g). […] Each conjugate was administered in the form of 0.2 mg/mL or 0.6 mg/mL (both calculated based on siRNA) in 0.9% aqueous sodium chloride solution, with an administration volume of 5 mL/kg mouse body weight; that is, the administration doses of each conjugate (calculated based on siRNA) were 1 mg/kg and 3 mg/kg. […] The blood was collected from mouse orbital venous plexus before administration and on day 7, 14, 21, 28, 35, 42, 49, 63, and 70 days after administration, and the serum HBsAg level was determined at each time point. […]
The inhibition rate against HBsAg is calculated according to the following equation:
wherein HBsAg content is expressed as the equivalents (UI) of HBsAg per millilitre (mL) of serum.

[4] = SD rats, subcutaneous single dose 0.5 mg/kg and 1 mg/kg
Method: In this Experimental Example, the rats in each experimental group (10 rats in each group, half male and half female) were administered with Conjugate 32 by subcutaneous injection respectively at a single dose of 1 mg/kg and 0.5 mg/kg of rat body weight. The plasma drug concentration and liver tissue drug concentration in rats at each time point were then measured.
First, SD rats were randomly divided into groups according to the body weight and gender of the rat using the [sequence] version 7.2.0 data system, and then the conjugates were administered at the designed doses, respectively. All animals were dosed based on body weight and subcutaneously administered at a single doses of 1 and 0.5 mg/kg (provided in the form of 0.1 mg/mL and 0.05 mg/mL in 0.9% aqueous sodium chloride solution, with a volume of 10 mL/kg). The rat's whole blood was collected from the jugular vein before administration and 5 minutes (±30 seconds), 30 minutes (±1 minute), 1 hour (±2 minutes), 2 hours (±2 minutes), 6 hours (±5 minutes), 24 hours (±10 minutes), 48 hours (±20 minutes), 72 hours (±20 minutes), 120 hours (±30 minutes), and 168 hours (±30 minutes) after administration. […]
The concentration of Conjugate 32 in rat plasma and liver tissue was quantitatively determined by HPLC-FLD (High Performance Liquid Fluorescence Chromatography) according to the following steps: […]

HBV mRNA [5] = experiment: Inhibition of HBV mRNA expression in liver of 44Bri mice, day 7 (Exp. Ex. 2-6); assay type: in vivo, HBV transgenic mice C57BL/6J-Tg(Alb1HBV)44Bri/J; settings: 1 mg/kg subcutaneous, day 7 after administration
Excerpt: (§2) HBV transgenic mice C57BL/6J-Tg(Alb1HBV)44Bri/J: purchased from Department of Laboratory Animal Science, Peking University Health Science Center. Mice with S/COV >10 were selected before the experiment. Hereinafter, the transgenic mice were sometimes abbreviated as 44Bri model mice;
In this experimental example, the inhibitory efficiency of different concentrations of Conjugate 32 on the expression level of HBV mRNA in HBV transgenic mice C57BL/6J-Tg (Alb1HBV) 44Bri/J was investigated. […]
The expression level of HBV mRNA in the liver tissue of each mouse was determined by real-time fluorescent quantitative PCR. Specifically, the total RNA extracted from the liver tissue of each mouse was reverse-transcribed into cDNA using ImProm-II™ reverse transcription kit (Promega) according to the instructions thereof, and then the expression level of HBV mRNA in liver tissue was determined by the fluorescent quantitative PCR kit (Beijing Cowin Biosciences Co., Ltd.) and the inhibitory efficiency was calculated. In this fluorescent quantitative PCR method, GAPDH gene was used as an internal control gene, and the HBV and GAPDH were detected by using the primers for HBV and GAPDH, respectively. […]

HBsAg [6] = settings: AAV-HBV low concentration model mice, 3 mg/kg subcutaneous single dose
Method: The AAV-HBV low concentration model mice were used. After the animal models were successfully established, they were randomly divided into groups according to serum HBsAg content (five mice per group). […] The blank group was administered with only 5 mL/kg 1×PBS. Blood was collected from mouse orbital venous plexus before administration and on day 14, 28, 42, 56, 70, 84, 98, 112, 126, 140, 154, 168, 182, and 196 days after administration, and the serum HBsAg level was determined at each time point.
About 100 μL orbital blood was taken each time, and no less than 20 NL serum was collected after centrifugation. The HBsAg content in serum was determined by using HBsAg CLIA kit (Autobio, CL0310) according to the instructions provided by the manufacturer.
Normalized expression level of HBsAg=(HBsAg content after administration/HBsAg content before administration)×100%.

HBV DNA = experiment: Time course of serum HBV DNA in AAV-HBV low concentration model mice (Exp. Ex. 2-7); assay type: in vivo; settings: 3 mg/kg subcutaneous single dose
Excerpt: as §1
Normalized expression level of HBV DNA=(HBV DNA content after administration/HBV DNA content before administration)×100%.

HBV mRNA [7] = experiment: Inhibition of HBV mRNA expression in liver of 44Bri mice, day 14 (Exp. Ex. 2-4); assay type: in vivo, HBV transgenic mice C57BL/6J-Tg(Alb1HBV)44Bri/J; settings: 1 mg/kg subcutaneous single dose, day 14 after administration
Excerpt: as §2
In this experimental example, the inhibitory efficiency of Conjugate 32 on the expression level of HBV mRNA in HBV-transgenic mice C57BL/6J-Tg (A 1b1HBV) 44Bri/J was investigated.
The HBV transgenic mice C57BL/6J-Tg (Alb1HBV) 44Bri/J used in this experimental example were purchased from the Department of Laboratory Animal Science, Peking University Health Science Center. […]
For each mouse, 1 μg of total RNA was taken, and the extracted total RNA was reverse-transcribed into cDNA using ImProm-II™ reverse transcription kit (Promega Crop.) according to the instructions thereof to obtain a solution containing cDNA, and then the expression level of HBV mRNA in liver tissue was determined by the fluorescent quantitative PCR kit (Beijing Cowin Biosciences Co., Ltd.). In this fluorescent quantitative PCR method, R-actin gene was used as an internal control gene, and HBV and 3-actin were detected by using primers for HBV and β-actin, respectively. […]

## Conjugate 32: siRNA conjugate, S SEQ ID NO 367, AS SEQ ID NO 368, Table 2A; conjugated via Compound N-62 (sense CCUUGAGGCAUACUUCAAA; antisense UUUGAAGUAUGCCUCAAGGUU; conjugated via Compound N-62, position not given here)
[1]
  stability in cynomolgus monkey plasma in vitro (semiquantitative): remain undegraded
HBV mRNA [2]
  inhibitory effect on HBV mRNA on day 70: can still inhibit the expression level of HBV mRNA to a certain extent
HBsAg [3]
  inhibition rate against serum HBsAg: up to 97.80%
[4]
  concentration in rat plasma over time: rapidly decreased to below detection limit within a few hours
  time for which the concentration in liver tissue maintained a higher and stable level: at least 150 hours
HBV mRNA [5]
  inhibition rate against HBV mRNA in liver tissue: up to 91.96%
HBsAg [6]
  inhibition rate against serum HBsAg: up to 90.9%
HBV DNA
  inhibition rate against HBV DNA in serum: up to 85.7%
HBV mRNA [7]
  inhibition rate against HBV mRNA in liver tissue: up to 89.86%
